Experimental data: patent publication US8961959B2, “Glucosylceramide synthase inhibitors and therapeutic methods using the same” (The Regents of the University of Michigan, priority 2011, dated 2015)
“Also recorded” adds a separate entry of the source.

Legend:
[1] = target: T1, glucosylceramide synthase (GCS) (Canis lupus familiaris, UniProt A0A8I3MXG6); experiment: GCS activity, broken cell (MDCK cell homogenate) assay; type: biochemical, canine
T1 construct: Madin-Darby canine kidney (MDCK) cell homogenates (120 μg of protein) were incubated; endogenous in cells; host or cells: MDCK (Madin-Darby canine kidney) cell homogenate
T1 sequence (A0A8I3MXG6 1-394): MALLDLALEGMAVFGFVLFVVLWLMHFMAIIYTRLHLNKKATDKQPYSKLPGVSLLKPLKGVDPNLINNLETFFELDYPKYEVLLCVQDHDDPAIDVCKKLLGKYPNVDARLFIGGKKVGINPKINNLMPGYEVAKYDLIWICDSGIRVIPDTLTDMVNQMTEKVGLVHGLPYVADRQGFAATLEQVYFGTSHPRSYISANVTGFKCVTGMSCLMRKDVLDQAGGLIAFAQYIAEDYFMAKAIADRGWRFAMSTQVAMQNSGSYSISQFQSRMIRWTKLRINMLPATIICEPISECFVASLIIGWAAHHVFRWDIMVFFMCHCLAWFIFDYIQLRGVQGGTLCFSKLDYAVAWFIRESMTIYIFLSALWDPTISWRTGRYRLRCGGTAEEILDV
Protocol: Enzyme activity was measured as described previously (9). Madin-Darby canine kidney (MDCK) cell homogenates (120 μg of protein) were incubated with uridine diphosphate-[^3H]glucose (100,000 cpm) and liposomes consisting of 85 μg of octanoylsphingosine, 570 μg of dioleoylphosphatidylcholine, and 100 μg of sodium sulfatide in a 200 μL reaction mixture and kept for 1 h at 37° C.

[2] = target: T2, MDR1 (Homo sapiens, UniProt P08183); experiment: [3H]Vinblastine transport in MDR1-MDCKII cells; type: cell-based; conditions: for [3H]vinblastine uptake into MDR1-MDCKII cells: 1-100 μM, 2 h, relative to vehicle
T2 construct: host or cells: MDCKII (canine kidney) cells retrovirally transduced with human MDR-1 cDNA
Protocol: MDR1- and WT-MDCKII cells were grown to confluence on Transwell filters (12 well plates) in DMEM+10% FBS. […] Uptake was measured over 2 hours at 37° C. At that time, uptake was stopped by washing each side of the membrane 3× with ice-cold PBS. Vinblastine uptake into the cells, after correction for any remaining adherent extracellular contamination, was calculated as described previously (11). To investigate the effect of experimental drugs on MDR-mediated transport, those compounds were added to the apical chamber (1-100 μM) during vinblastine uptake and the uptake results expressed as a % of that with vehicle alone.

[3] = tested on: C57BL/6 mice; experiment: Organ GlcCer content in C57BL/6 mice after short term i.p. dosing; type: in vivo, mouse; conditions: for change in brain GlcCer levels: 10 mg/kg/day i.p. for 3 days, 12 h after last injection; for fall in brain GlcCer levels: 30 mg/kg q 12 h for 3 days i.p.; for liver and kidney GlcCer levels: i.p. 3 days; for brain GlcCer content, short term dosing: i.p. for 3 days, in words
Protocol: C57BL/6 mice were maintained on regular chow in specific-pathogen-free facilities. All animal studies were performed under the review of the University of Michigan Committee on the Use and Care of Animals and conformed to the National Institutes of Health Guide for the Care and Use of Laboratory Animals. Injection solutions were prepared from inhibitor-ethanol stock solution (100 mM) A portion of the stock solution was evaporated under a stream of N2 gas. Dried eliglustat tartrate (compound 3a) was directly dissolved into 1× phosphate buffered saline. […] The acidic solution was neutralized by mixing 100 μL of 10× phosphate buffered saline with 636.3 μL of water to bring the total volume to one ml. Inhibitor solutions were sterilized by passage through a […]. Inhibitor recovery after filtration was confirmed by UV spectrometry and exceeded 99%. For control injections, phosphate buffered saline containing the same amount of HCl was used. Inhibitors were given to 6 to 8 week old female or male C57BL/6 mice by intraperitoneal injection volume at 1% of body weight.
Lipid extractions of liver, kidney, and brain were performed as previously described (7). Briefly, frozen liver (about 0.5 g), two kidneys (about 0.3 g) and whole brain (about 0.4 g) were individually homogenized in sucrose buffer (250 mM sucrose, pH 7.4, 10 mM HEPES and 1 mM EDTA), at 0.2 g tissue/1 mL of sucrose buffer, with a Tri-R homogenizer. Each 0.8 mL of homogenate was mixed with 2 mL of methanol and 1 mL of chloroform, bath sonicated for 1 min and incubated at room temperature for 1 h. Tissue debris were removed by centrifugation at 2,400×gravity for 30 min. The pellets were re-extracted by mixing with 1 mL of methanol, 0.5 mL of chloroform and 0.4 mL of 0.9% NaCl (chloroform/methanol/0.9% NaCl, 1:2:0.8), incubated at room temperature for 1 h and centrifuged at 2,400×gravity for another 30 min. Two extracts were combined and mixed with 4.5 mL of chloroform and 1.2 mL of 0.9% NaCl (chloroform/methanol/0.9% NaCl, 2:1:0.8). After centrifugation at 800×gravity for 5 min, lower layer was washed with 3 mL of methanol and 2.4 mL of 0.9% NaCl. Second washing was carried with 3 mL of methanol, 2 mL of water and 0.4 mL of 0.9% NaCl followed by a 5 min centrifugation at 800×gravity. The resultant lower phase was collected and dried under a stream of N2 gas.
The analysis of neutral glycosphingolipids from mouse liver, kidney, and brain was processed after alkaline methanolysis. […] lipids were incubated with 2 mL of chloroform and 1 ml of 0.21N NaOH in methanol for 2 h (kidney) or 7.5 h (liver and brain) at RT. The lipid extract was normalized to 0.5 μmol of total phospholipid phosphate (liver and kidney) or 2 μmol of total phospholipid phosphate (brain) for high performance thin layer chromatography analysis. After alkaline methanolysis, the brain lipids were passed through a silica gel column (7). Borate-impregnated thin layer chromatography plates were developed in a two solvent system. Plates were first developed in chloroform/methanol (98:2, v/v). The plates loaded with kidney and liver lipids were then developed in chloroform/methanol/water (64:24:4, v/v/v), and brain lipids were further separated in chloroform/methanol/water (60:30:6, v/v/v). GlcCer levels were quantified by comparison to known standards.

T2 sequence (P08183 whole entry): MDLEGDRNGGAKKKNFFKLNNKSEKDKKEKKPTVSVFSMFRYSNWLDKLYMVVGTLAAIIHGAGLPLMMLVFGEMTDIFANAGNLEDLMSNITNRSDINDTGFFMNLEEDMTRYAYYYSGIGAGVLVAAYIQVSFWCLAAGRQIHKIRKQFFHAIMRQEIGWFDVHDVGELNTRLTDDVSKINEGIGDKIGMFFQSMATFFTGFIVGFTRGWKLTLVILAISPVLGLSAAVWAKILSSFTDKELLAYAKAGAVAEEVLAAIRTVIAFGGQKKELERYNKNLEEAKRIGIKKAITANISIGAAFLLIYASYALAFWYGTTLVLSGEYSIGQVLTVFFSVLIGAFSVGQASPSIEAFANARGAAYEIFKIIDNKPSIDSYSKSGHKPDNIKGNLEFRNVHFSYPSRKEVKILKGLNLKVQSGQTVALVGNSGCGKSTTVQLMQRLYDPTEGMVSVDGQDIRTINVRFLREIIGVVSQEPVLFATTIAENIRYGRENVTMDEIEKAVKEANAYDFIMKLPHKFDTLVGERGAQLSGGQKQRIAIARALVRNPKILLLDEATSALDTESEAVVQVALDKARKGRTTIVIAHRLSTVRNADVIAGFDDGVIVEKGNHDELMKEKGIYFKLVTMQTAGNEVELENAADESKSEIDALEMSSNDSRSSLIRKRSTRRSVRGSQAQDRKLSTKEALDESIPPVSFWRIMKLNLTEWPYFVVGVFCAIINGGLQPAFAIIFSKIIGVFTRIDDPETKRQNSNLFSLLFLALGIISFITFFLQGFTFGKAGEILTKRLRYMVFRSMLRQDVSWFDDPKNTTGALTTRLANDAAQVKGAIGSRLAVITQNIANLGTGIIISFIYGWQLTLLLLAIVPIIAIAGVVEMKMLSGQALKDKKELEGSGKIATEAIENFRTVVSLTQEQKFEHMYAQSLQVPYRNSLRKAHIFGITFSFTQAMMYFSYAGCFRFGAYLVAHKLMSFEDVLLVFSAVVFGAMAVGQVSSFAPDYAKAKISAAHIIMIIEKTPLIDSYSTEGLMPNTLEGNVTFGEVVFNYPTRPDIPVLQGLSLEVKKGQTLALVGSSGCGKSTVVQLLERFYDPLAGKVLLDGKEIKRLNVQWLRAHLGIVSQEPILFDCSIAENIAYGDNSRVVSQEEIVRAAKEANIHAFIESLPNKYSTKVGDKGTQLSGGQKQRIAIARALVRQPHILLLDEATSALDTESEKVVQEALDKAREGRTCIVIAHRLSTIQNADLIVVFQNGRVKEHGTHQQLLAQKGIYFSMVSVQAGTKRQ

Row | SMILES | IC50 [1] [nM] | [3H]vinblastine uptake into MDR1-MDCKII cells [2] | change in brain GlcCer levels [3] | fall in brain GlcCer levels [3] | liver and kidney GlcCer levels [3] | liver and kidney GlcCer levels ([3]; listed as eliglustat) | brain GlcCer content, short term dosing [3] | brain GlcCer content, short term dosing ([3]; listed as eliglustat tartrate) | inhibition of GCS ([1]; in words) | interaction with / recognition by MDR1 ([2]; assessed by GCS IC50 shift and vinblastine uptake assays)
1 | CCCCCCCC(=O)N[C@H](CN1CCCC1)[C@H](O)c1ccc2c(c1)OCCO2 [Compound 3a, N-((1R,2R)-1-(2,3-dihydrobenzo-[b][1,4]dioxin-6-yl)-1-hydroxy-3-(pyrrolidin-1-yl)propan-2-yl)octanamide, reference compound] | 149 | dose-dependent increase | without changes | without any changes | significantly lowered | lowered | failed to demonstrate any change | an effect not seen |  | 
2 | O=C(CC1Cc2ccccc2C1)N[C@H](CN1CCCC1)[C@H](O)c1ccc2c(c1)OCCO2 [Compound 3h, 2-(2,3-dihydro-1H-inden-2-yl)-N-((1R,2R)-1-(2,3-dihydrobenzo[b][1,4]dioxin-6-yl)-1-hydroxy-3-(pyrrolidin-1-yl)propan-2-yl)acetamide] | 27 | no significant dose dependent change | ten percent decrease | 17% |  |  | significant dose dependent decrease; also recorded: significantly lowered |  | low nanomolar concentrations | little to no apparent recognition by MDR1; also recorded: least interaction with MDR
